Read-outs that look alike come from different tables or passages of the source.
Key:
EGFR (WT) = EGFR (WT) (Homo sapiens (Human), UniProt P00533); experiment: Omnia biochemical assay, EGFR-WT active enzyme; settings: [EGFR-WT]=5 nM, [ATP]=15 uM, 30 min pre-incubation
Description: Kinase reactions were started with the addition of 45 μL of the ATP/Tyr-Sox peptide substrate mix and monitored every 71 seconds for 60 minutes at λex360/λem485 in a Synergy^4 plate reader from BioTek (Winooski, Vt.).
The compound numbers correspond to the compound numbers in Table 1.

[1] = target: EGFR double mutation L858R/T790M (H1975 cells) (Homo sapiens (Human), UniProt P00533, L858R/T790M); experiment: Phospho-EGFR signaling immunoblot in H1975 cells; type: cell-based; settings: for EC50: H1975 cells, 1 hr treatment, phospho-EGFR (Y1068); for Ratio WT/mutant (H1975): signaling EC50 WT EGFR / H1975
Description: (§1) A431 human epidermoid carcinoma, H1975 human NSCLC and HCC827 human NSCLC adenocarcinoma cells were obtained from the American Type Culture Center (Manassas, Va.). A431 cells were grown in DMEM (Invitrogen, Carlsbad, Calif.) supplemented with 10% FBS (HyClone, South Logan, Utah) and 1% Penicillin-Streptomycin (P/S, Lonza, Walkersville, Md.).
(§2) All primary antibodies were obtained from Cell Signaling (Danvers, Mass.) and used at 1:1000. Secondary antibodies were used at 1:10,000. Goat anti-mouse IgG IRDye 800CW antibody was obtained from LiCor Biosciences (Lincoln, Nebr.) and goat anti-rabbit IgG Alexa Fluor 680 was obtained from Invitrogen.
(§3) Cells were grown in 12-well plates (Corning, Coring, N.Y.) to 90% confluence and then incubated in low-serum (0.1% FBS) media for 16-18 hr. […] A431 cells were then stimulated with 50 ng/ml EGF (Peprotech, Rocky Hill, N.J.) for 15 min. After treatment, cell monolayers were washed with cold PBS (Invitrogen) and immediately lysed by scrapping into 60 uL cold Cell Extraction Buffer (Invitrogen) supplemented with Complete Protease inhibitors (Roche, Indianapolis, Ind.) and PhosphoSTOP (Roche) phosphatase inhibitors.
(§4) Phospho-protein signals were quantitated using Odyssey Infrared Imaging (Li-Cor Biosciences).
(§5) To assess phosphor-EGFR signaling, blots were probed with rabbit anti-Phospho-EGFR (Y1068) and mouse total anti-EGFR antibodies. Phospho-EGFR signal was normalized to total EGFR expression for each sample. […] Normalized data was fitted using a sigmoidal curve analysis program (Graph Pad Prism version 5) with variable Hill slope to determine the EC50 values.
(§6) The compound numbers recited in Table 4 correspond to the compound numbers in Table 1.

[2] = test system: H1975 cells (EGFR L858R/T790M); experiment: Cell proliferation (CellTiter Glo), H1975 cells
Description: (§7) Cells were plated in Growth Media supplemented with 5% FBS and 1% P/S at a density of 3,000 cells per well in 96 well tissue culture plates (Corning). […] Growth inhibition (GI50) values were determined by Graph Pad Prism.

WT EGFR (A431 cells) = WT EGFR (A431 cells) (Homo sapiens (Human), UniProt P00533); experiment: Phospho-EGFR signaling immunoblot in A431 cells (WT EGFR); type: cell-based; settings: 1 hr treatment, EGF stimulated, phospho-EGFR (Y1068)
Description: as §1, §2, §3, §4, §5, §6

[3] = test system: HCC827 cells (EGFR delE746-A750); experiment: Cell proliferation (CellTiter Glo), HCC827 cells
Description: as §7

[4] = target: EGFR delE746-A750 deletion mutation (HCC827 cells) (Homo sapiens (Human), UniProt P00533, DEL746-750); experiment: Phospho-EGFR signaling immunoblot in HCC827 cells; type: cell-based; settings: for EC50: HCC827 cells, 1 hr treatment, phospho-EGFR (Y1068); for Ratio WT/mutant (HCC827): signaling EC50 WT EGFR / HCC827
Description: as §1, §2, §3, §4, §5, §6

A431 cells (WT EGFR) = experiment: Cell proliferation (CellTiter Glo), A431 cells
Description: as §7

H1975 tumor = H1975 tumor in vivo study; settings: female nu/nu mice, H1975 subcutaneous, intraperitoneal 25 mg/kg daily for 21 days, determined at 15 days
Description: H1975 Tumor In Vivo Study
Female nu/nu mice were implanted with 1×10^7 H1975 tumor cells in 50% Matrigel subcutaneously (0.2 ml injection volume) in the flank. Tumor measurements were recorded three times per week. Tumors were pair matched when they reached an average size of 100-150 mg. Group size was 10 mice. Test compound was administered intraperitoneal, 25 mg/kg daily for 21 days. % Tumor inhibition values were determined at 15 days, the time at which the control group reached a maximum tumor volume. Tumor volume was followed until tumors reached 1500 mm^3 or 60 days.

[5] = target: EGFR Deletion/T790M Mutation (H1975 cells) (Homo sapiens (Human), UniProt P00533, L858R/T790M); experiment: Washout experiment in H1975 cells (pEGFR after compound removal); type: cell-based; settings: 500 nM for 1 hr, at 24 h after compound removal
Description: Washout Experiment in H1975 Cells Containing EGFR Deletion/T790M Mutation
Cells were plated in Growth Media supplemented with 10% FBS and 1% P/S at a density of 2.0×10^5 cells per well in 12 well tissue culture plates. Cells were allowed to settle down for 4 hrs and then maintained in low-serum (0.1% FBS) media overnight.
The following morning the media was removed and the cells were treated with 500 nM test compound in low-serum media for 1 hr. The cells were washed free of compound 2× with PBS (Invitrogen). One set of cells were immediately lysed as indicated above as the 0 hr time point. The remaining cells were incubated with complete RPMI-1640 growth media (10% FBS) for 1, 3, 6 and 24 hr. For the first 1 hr, cells were washed 2× with PBS every 30 min. DMSO (0.5%) controls were collected at the 0, 3, 6 and 24 hr time points.

[6] = proliferation GI50 WT EGFR / H1975
[7] = proliferation GI50 WT EGFR / HCC827

Question: `C=CC(=O)Nc1cccc(Nc2nc(Nc3ccc(N4CCOCC4)cc3OC(F)F)ncc2C(F)(F)F)c1` [Compound I-14, N-(3-(2-(2-(difluoromethoxy)-4-morpholinophenylamino)-5-(trifluoromethyl)pyrimidin-4-ylamino)phenyl)acrylamide] was tested. Which IC50 (EGFR (WT)) did it give?
Answer: Its IC50 is 10 to 30 nM.

Question: What about the EC50 [1] of the same molecule?
Answer: The EC50 was 10 to 100 nM.

Question: And the “Ratio WT/mutant (H1975)” value [1]?
Answer: Its value is >15.

Question: What about the “Ratio WT/mutant (H1975)” value [2, 6] of the same molecule?
Answer: Its value is >5.

Question: What about the EC50 (WT EGFR (A431 cells)) of the same molecule?
Answer: Its EC50 is 500 to 1000 nM.

Question: And the “Ratio WT/mutant (HCC827)” value [3, 7]?
Answer: Its value is >10.

Question: And the EC50 [4]?
Answer: The EC50 was 10 to 100 nM.

Question: What about the “Ratio WT/mutant (HCC827)” value [4] of the same molecule?
Answer: The value was >15.

Question: How did the IC50 (EGFR (WT)) turn out when `C=CC(=O)Nc1cccc(Oc2nc(Nc3ccc(N4CCN(C(C)=O)CC4)cc3OC)ncc2C(F)(F)F)c1` [Compound I-10, N-(3-(2-(4-(4-acetylpiperazin-1-yl)-2-methoxyphenylamino)-5-(trifluoromethyl)pyrimidin-4-yloxy)phenyl)acrylamide] was run?
Answer: The IC50 was 1 to 10 nM.

Question: What about the “Ratio WT/mutant (H1975)” value [2] of the same molecule?
Answer: Its value is >1.

Question: And the GI50 ([2]; Homo sapiens, NCI-H1975, 72 h, read-out: H1975 GI50 (nM))?
Answer: The GI50 was 500 to 1000 nM.

Question: And the GI50 (A431 cells (WT EGFR); Homo sapiens, A-431, 72 h, read-out: WT EGFR GI50 (nM))?
Answer: The GI50 was > 1000 nM.

Question: What about the “Ratio WT/mutant (HCC827)” value [3] of the same molecule?
Answer: The value was >20.

Question: And the GI50 ([3]; Homo sapiens, HCC827, 72 h, read-out: HCC827 GI50 (nM))?
Answer: Its GI50 is 100 to 500 nM.

Question: Which IC50 (EGFR (WT)) does the source give for `C=CC(=O)Nc1cccc(Oc2nc(Nc3ccc(N4CCOCC4)cc3OC)ncc2C(F)(F)F)c1` [Compound I-1, N-(3-(2-(2-methoxy-4-morpholinophenylamino)-5-(trifluoromethyl)pyrimidin-4-yloxy)phenyl)acrylamide] here?
Answer: The IC50 was 30 to 100 nM.

Question: And the EC50 [1]?
Answer: The EC50 was 10 to 100 nM.

Question: What about the “Ratio WT/mutant (H1975)” value [1] of the same molecule?
Answer: Its value is >50.

Question: What about the “Ratio WT/mutant (H1975)” value [2, 6] of the same molecule?
Answer: Its value is >15.

Question: And the EC50 (WT EGFR (A431 cells))?
Answer: Its EC50 is > 1000 nM.

Question: And the “% Tumor inhibition” value (H1975 tumor)?
Answer: Its value is >66%.

Question: And the “Ratio WT/mutant (HCC827)” value [3, 7]?
Answer: Its value is >15.

Question: Which results are given for `C=CC(=O)Nc1cccc(Oc2nc(Nc3ccc(N4CCOCC4)cc3OC)ncc2Cl)c1` [Compound I-5, N-(3-(5-chloro-2-(2-methoxy-4-morpholinophenylamino)pyrimidin-4-yloxy)phenyl)acrylamide]?
Answer: IC50 (EGFR (WT)): 10 to 30 nM; EC50 [1]: 10 to 100 nM; Ratio WT/mutant (H1975) [1]: >30; Ratio WT/mutant (H1975) [2, 6]: >5; EC50 (WT EGFR (A431 cells)): > 1000 nM; % Tumor inhibition (H1975 tumor): >33%; Ratio WT/mutant (HCC827) [3, 7]: >20

Question: How did the IC50 (EGFR (WT)) turn out when `C=CC(=O)Nc1cccc(Oc2nc(Nc3ccc(N4CCN(C(=O)OC(C)(C)C)CC4)cc3OC)ncc2Cl)c1` [Compound I-46, tert-butyl 4-(4-(4-(3-acrylamidophenoxy)-5-chloropyrimidin-2-ylamino)-3-methoxyphenyl)piperazine-1-carboxylate] was run?
Answer: Its IC50 is 100 to 300 nM.

Question: And the EC50 [1]?
Answer: Its EC50 is 100 to 500 nM.

Question: And the “Ratio WT/mutant (H1975)” value [1]?
Answer: Its value is >10.

Question: And the “Ratio WT/mutant (H1975)” value [2]?
Answer: The value was >1.

Question: What about the EC50 (WT EGFR (A431 cells)) of the same molecule?
Answer: The EC50 was > 1000 nM.

Question: And the “Ratio WT/mutant (HCC827)” value [3]?
Answer: Its value is >10.

Question: And the EC50 [4]?
Answer: The EC50 was < 10 nM.

Question: And the “Ratio WT/mutant (HCC827)” value [4]?
Answer: Its value is >50.

Question: For `C=CC(=O)Nc1cccc(Nc2nc(Nc3ccc(N4CCN(S(C)(=O)=O)CC4)cc3OC)ncc2C(F)(F)F)c1` [Compound I-17, N-(3-(2-(2-methoxy-4-(4-(methylsulfonyl)piperazin-1-yl)phenylamino)-5-(trifluoromethyl)pyrimidin-4-ylamino)phenyl)acrylamide], which IC50 (EGFR (WT)) is on record?
Answer: The IC50 was 10 to 30 nM.

Question: And the EC50 [1]?
Answer: The EC50 was 10 to 100 nM.

Question: What about the “Ratio WT/mutant (H1975)” value [1] of the same molecule?
Answer: The value was >30.

Question: And the “Ratio WT/mutant (H1975)” value [2, 6]?
Answer: The value was >10.

Question: And the EC50 (WT EGFR (A431 cells))?
Answer: The EC50 was > 1000 nM.

Question: And the “Ratio WT/mutant (HCC827)” value [3, 7]?
Answer: The value was >15.

Question: And the EC50 [4]?
Answer: Its EC50 is 100 to 500 nM.

Question: What about the “Ratio WT/mutant (HCC827)” value [4] of the same molecule?
Answer: The value was >5.

Question: What does the source list for `C=CC(=O)Nc1cccc(Nc2nc(Nc3ccc(N4CCN(C(C)=O)CC4)cc3OC)ncc2C(F)(F)F)c1` [Compound I-4, N-(3-(2-(4-(4-acetylpiperazin-1-yl)-2-methoxyphenylamino)-5-(trifluoromethyl)pyrimidin-4-ylamino)phenyl)acrylamide]?
Answer: % Tumor inhibition (H1975 tumor): >66%; activity restored by new protein synthesis [5]: 40-60%

Question: “N-(3-(5-chloro-2-(2-methoxy-4-morpholinophenylamino)pyrimidin-4-ylamino)phenyl)acrylamide [Compound I-15]” was tested. Which IC50 (EGFR (WT)) did it give?
Answer: Its IC50 is 30 to 100 nM.

Question: And the “Ratio WT/mutant (H1975)” value [2, 6]?
Answer: The value was >1.

Question: What about the GI50 ([2]; read-out: H1975 GI50, H1975 cells, 72 hr) of the same molecule?
Answer: The GI50 was 500 to 1000 nM.

Question: And the GI50 (A431 cells (WT EGFR); read-out: WT EGFR GI50, A431 cells, 72 hr)?
Answer: Its GI50 is > 1000 nM.

Question: And the “Ratio WT/mutant (HCC827)” value [3, 7]?
Answer: Its value is >10.

Question: What about the GI50 ([3]; read-out: HCC827 GI50, HCC827 cells, 72 hr) of the same molecule?
Answer: Its GI50 is 100 to 500 nM.

Question: With `C=CC(=O)Nc1cccc(Nc2nc(Nc3ccc(N4CCOCC4)cc3OC)ncc2C(F)(F)F)c1` [Compound I-2, N-(3-(2-(2-methoxy-4-morpholinophenylamino)-5-(trifluoromethyl)pyrimidin-4-ylamino)phenyl)acrylamide] as the molecule, how does the IC50 (EGFR (WT)) read?
Answer: The IC50 was 10 to 30 nM.

Question: What about the EC50 [1] of the same molecule?
Answer: The EC50 was 10 to 100 nM.

Question: And the “Ratio WT/mutant (H1975)” value [1]?
Answer: Its value is >50.

Question: What about the “Ratio WT/mutant (H1975)” value [2, 6] of the same molecule?
Answer: The value was >20.

Question: And the EC50 (WT EGFR (A431 cells))?
Answer: The EC50 was > 1000 nM.

Question: And the “% Tumor inhibition” value (H1975 tumor)?
Answer: The value was >66%.

Question: And the “activity restored by new protein synthesis” value [5]?
Answer: The value was 40-60%.

Question: What about the “Ratio WT/mutant (HCC827)” value [3, 7] of the same molecule?
Answer: The value was >40.

— US8975249B2, “Heterocyclic compounds and uses thereof” (Celgene Avilomics Research, Inc., priority 2010, dated 2015)
